Data published in paper PMC10619133, “The catechol moiety of obafluorin is essential for antibacterial activity” (RSC Chemical Biology, 2023).
In brackets after ≈: the same amount, converted by molar mass. Entries after “also recorded” stand apart in the source; their conditions may differ. Like-named read-outs stand apart in the source and are kept apart here.

Columns and labels:
E. coli NR698 = assay: Spot-on-lawn MIC bioassay; format: cell-based; conditions: Escherichia coli, NR698
Experimental: (§1) Indicator strains were grown for 16–18 h in LB (5 mL) by inoculation from a single colony. An aliquot of the resulting culture (500 μL) was then used to inoculate LB (50 mL in 250 mL Erlenmeyer flasks), followed by orbital shaking at 250 rpm until they reached an OD600 of 0.3–0.4. These cultures were then diluted 1 : 10 with molten soft nutrient agar (SNA), before pouring into appropriately sized Petri dishes to set. Serial dilutions of the test compounds (from 256 μg mL^−1 to 1 μg mL^−1 plus an additional sample at 1000 μg mL^−1) were prepared in acetonitrile (ACN), and 4 μL of each sample was applied directly onto the SNA surface. Kanamycin (50 μg mL^−1), apramycin (50 μg mL^−1) or aureobasidin A (0.2 μg mL^−1) were used as positive controls, as appropriate, and ACN or water (4 μL) were used as negative controls. […] Experiments were carried out in at least triplicate for each strain.

PfThrRS = PfThrRS (Pseudomonas fluorescens, UniProt C3JZN7); assay: Aminoacylation assay; format: biochemical, P. fluorescens; conditions: enzyme 10 nM; read-out: concentration of full inhibition
Experimental: (§2) To measure the effects of 1–4 on ThrRS canonical tRNA charging activity, an assay modified from that reported by Ruan et al.[53] was used, where active enzyme was incubated with its necessary substrates and its activity measured using ^14C labeled Thr and a liquid scintillation counter. Purified ThrRS protein (10 nM) was pre-incubated with varying concentrations of compounds 1–4 or ACN for 10 min. After pre-incubation, ThrRS samples were added to a master reaction mixture with the final component concentrations of HEPES (100 mM, pH 7.0), ATP (4 mM), MgCl2 (10 mM), L-[U-^14C]threonine (50 μM, Moravek Inc.), and tRNA^Thr (5 μM). This mixture was incubated at room temperature for 10 min, with samples taken at 1, 2.5, 5, and 10 min. At each time point, a 7 μL aliquot was spotted onto a 5% trichloroacetic acid (TCA) presoaked 3 MM Whatman paper (Cytiva) squares (repeated in triplicate). After allowing the spots to dry, the Whatman paper was washed three times with 5% TCA, and once with 95% EtOH. The Whatman paper was dried and the counts on each square of paper analyzed using a Tri-Carb 2910 TR liquid scintillation counter using Hydrofluor Liquid Scintillation Fluid (National Diagnostics). To calculate IC50 values, fractional initial velocities (velocity of inhibited reaction/velocity in the absence of inhibitor) were plotted against the log of 1 concentration and then fitted to eqn (1), using GraphPad Prism.1 [drawing 1]

ObaO = assay: Aminoacylation assay; format: biochemical, P. fluorescens
Experimental: as §2

MRSA = assay: Spot-on-lawn MIC bioassay; format: cell-based, Methicillin-resistant Staphylococcus aureus; conditions: for MIC: Staphylococcus aureus, MRSA, read-out: MIC
Experimental: as §1
(§3) The method was the same as for the antibacterial MIC assays described above, with the following modifications: for excess iron, Fe(NO3)3·9H2O stock (400 mM) was added to give a final concentration of 1.5 or 2.0 mM; for iron depletion, bipy stock (1 M) was added to give a final concentration of 150 μM. For MRSA, 1 was further diluted to 0.5 0.25 and 0.125 μg mL^−1 due to a decrease in MIC under excess iron conditions. The general effect of excess iron on the activity of alternative antibiotics was determined by performing a similar serial dilution of carbenicillin, kanamycin, streptomycin, nitrofurantoin and chloramphenicol in the presence of Fe^3+.

B. subtilis = assay: Spot-on-lawn MIC bioassay; format: cell-based, B. subtilis EC 1524; conditions: Bacillus subtilis, standard conditions, read-out: MIC
Experimental: as §1

E. coli BW25113 Δ3 = assay: Spot-on-lawn MIC bioassay, TBDT knock-out mutant; format: cell-based; conditions: for MIC: Escherichia coli
Experimental: as §1, §3

E. coli BW25113 Δ6 = assay: Spot-on-lawn MIC bioassay, TBDT knock-out mutant; format: cell-based; conditions: for MIC: Escherichia coli
Experimental: as §1, §3

S. cerevisiae = assay: Spot-on-lawn MIC bioassay; format: cell-based, S. cerevisiae NCYC 2939; conditions: Saccharomyces cerevisiae
Experimental: as §1

Streptococcus pyogenes = tested on: Streptococcus pyogenes; parameters: method as in doi:10.1021/jo00350a010; conditions: dosed systemically; cited from earlier work
E. coli 25922 = assay: Spot-on-lawn MIC bioassay; format: cell-based, E. coli ATCC 25922
Experimental: as §1, §3

E. coli BW25113 = assay: Spot-on-lawn MIC bioassay; format: cell-based; conditions: for MIC: Escherichia coli
Experimental: as §1, §3

P. aeruginosa PA01 = assay: Spot-on-lawn MIC bioassay; format: cell-based; conditions: for MIC: Pseudomonas aeruginosa
Experimental: as §1, §3

[1] = with vs without Fe^3+ in growth agar
[2] = BW25113, iron depleted, +bipy (150 μM)
[3] = BW25113, iron replete, +Fe^3+ (2 mM)

Chain of PfThrRS (C3JZN7 whole entry): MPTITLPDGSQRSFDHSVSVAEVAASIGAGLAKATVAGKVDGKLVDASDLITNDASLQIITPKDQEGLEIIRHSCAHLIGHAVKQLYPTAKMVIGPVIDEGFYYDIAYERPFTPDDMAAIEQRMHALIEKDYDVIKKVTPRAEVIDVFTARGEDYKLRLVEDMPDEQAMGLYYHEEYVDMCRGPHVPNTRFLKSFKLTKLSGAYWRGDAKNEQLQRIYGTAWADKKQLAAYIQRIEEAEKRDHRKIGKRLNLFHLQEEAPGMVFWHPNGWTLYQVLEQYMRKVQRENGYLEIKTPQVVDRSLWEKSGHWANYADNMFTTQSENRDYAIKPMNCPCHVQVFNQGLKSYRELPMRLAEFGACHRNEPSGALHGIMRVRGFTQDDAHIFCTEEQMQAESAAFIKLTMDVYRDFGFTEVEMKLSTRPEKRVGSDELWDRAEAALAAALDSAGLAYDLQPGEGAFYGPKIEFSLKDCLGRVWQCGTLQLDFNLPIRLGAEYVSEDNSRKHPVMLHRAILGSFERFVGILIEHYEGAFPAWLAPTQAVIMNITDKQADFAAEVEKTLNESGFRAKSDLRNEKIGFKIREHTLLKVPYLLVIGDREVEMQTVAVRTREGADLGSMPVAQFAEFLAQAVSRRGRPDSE

In the case of `O=C(N[C@@H]1C(=O)O[C@@H]1Cc1ccc([N+](=O)[O-])cc1)c1cccc(O)c1O` [compound 1, Obafluorin], the MIC (E. coli NR698) is reported as 4 µg/mL (≈ 11.2 µM), the IC100 (PfThrRS) is reported as 0.01 µM and the “inhibition of aminoacylation (in words)” value (ObaO; 0–5 μM (up to 5000 nM)) is reported as “no observable inhibition; also recorded: no significant inhibition”. The IC50 (ObaO; enzyme 10 nM, 10 min preincubation, 0–5 μM compound) was “not inhibited; also recorded: No inhibition”, the MIC (MRSA; +Fe^3+ (2 mM) in the media) was 0.25 µg/mL (≈ 0.698 µM) and the MIC (MRSA; spot-on-lawn, standard conditions) was 2 µg/mL (≈ 5.58 µM). The “decrease in MIC with added Fe^3+” value (MRSA; [1]) was 8 fold, the MIC (B. subtilis) was 4 µg/mL (≈ 11.2 µM) and the MIC (E. coli BW25113 Δ3; [2]) was 256 µg/mL (≈ 714 µM). For the same molecule, the MIC (E. coli BW25113 Δ3; [3]) was no more than 1 µg/mL, the MIC (E. coli BW25113 Δ3; BW25113, standard conditions) was 256 µg/mL (≈ 714 µM) and the “decrease in MIC upon addition of Fe^3+” value (E. coli BW25113 Δ3; with vs without Fe^3+) was no less than 256 fold. The MIC (E. coli BW25113 Δ6; [3]) was no more than 1 µg/mL, the MIC (E. coli BW25113 Δ6; BW25113, standard conditions) was 256 µg/mL (≈ 714 µM) and the “decrease in MIC upon addition of Fe^3+” value (E. coli BW25113 Δ6; with vs without Fe^3+) was no less than 256 fold. The MIC (S. cerevisiae; Figure S12 legend, read-out: Minimum inhibitory concentration) was 1000 µg/mL (≈ 2790 µM), the MIC (S. cerevisiae; standard conditions, read-out: MIC) was 1000 µg/mL (≈ 2790 µM) and the “protection of infected mice (in words)” value (Streptococcus pyogenes) was “can protect mice”. For the same molecule, the “toxicity in mice (in words)” value (Streptococcus pyogenes) was “no observable toxicity”, the MIC (E. coli 25922; Escherichia coli, 25922, iron depleted, +bipy (150 μM)) was 256 µg/mL (≈ 714 µM) and the MIC (E. coli 25922; Escherichia coli, 25922, +Fe^3+ (2 mM) in the media, read-out: MIC) was no more than 1 µg/mL. For the same molecule, the MIC (E. coli 25922; Escherichia coli, 25922, spot-on-lawn, standard conditions) was 256 µg/mL (≈ 714 µM), the “decrease in MIC with added Fe^3+” value (E. coli 25922; [1]) was no less than 256 fold and the MIC (E. coli BW25113; [2]) was 256 µg/mL (≈ 714 µM). The MIC (E. coli BW25113; BW25113, iron replete, +Fe^3+ (2 mM), read-out: MIC) was no more than 1 µg/mL, the MIC (E. coli BW25113; BW25113, standard conditions) was 256 µg/mL (≈ 714 µM) and the “decrease in MIC upon addition of Fe^3+” value (E. coli BW25113; with vs without Fe^3+) was no less than 256 fold. The MIC (P. aeruginosa PA01; PA01, +Fe^3+ (1.5 mM) in the media) was no more than 1 µg/mL, the MIC (P. aeruginosa PA01; PA01, spot-on-lawn, standard conditions) was 128 µg/mL (≈ 357 µM) and the “decrease in MIC with added Fe^3+” value (P. aeruginosa PA01; [1]) was no less than 128 fold.
